{"source": "patent US8586354B2", "about": "“Adenoviruses, nucleic acids that code for the same and the use of said viruses” (priority 2003, dated 2013)", "key": {"[1]": {"system": "U373 tumour cells", "test": "Southern blot of adenoviral replication in U373 cells after cytostatic", "type": "cell-based", "procedure": "In order to determine the effect of Irinotecan on adenoviral replication 10^6 U373 tumour cells were plated in 10 cm^2 Petri dishes. In a first reaction 5 μM Irinotecan was added after 24 hours. After another 24 hours the cells were infected with 10 pfu/cell dl520. After incubation of 3 days without Irinotecan DNA was isolated in accordance with the procedure described in example 10.\nIn a parallel reaction the thus prepared U373-cells were not pre-incubated with Irinotecan. After 48 hours of cultivating the cells without Irinotecan, they were infected with 10 pfu/cell dl520 and subsequently incubated without Irinotecan for another 3 days. DNA was isolated as described above.\nSubsequently 2 μg DNA were digested with restriction enzyme Kpn I and a Southern Blot analysis performed. A part of the adenoviral genome (position: 22734-24235) generated by means of PCR was used as a probe.\nIn order to test the effect of Trichostatin A on adenoviral replication, 10^6 U373 tumour cells were plated in 10 cm^2 Petri dishes. After 24 hours 0.25, 0.5 and 0.75 μM Trichostatin A was added. After another 24 hours the cells were infected with 10 pfu/cell dl520.\nAfter 3 days of incubation in medium without Trichostatin DNA was isolated. Subsequently 2 μg DNA were digested with restriction enzyme Kpn I and a Southern Blot analysis performed. […]"}, "[2]": {"system": "Coxsackievirus-adenovirus-receptor (CAR)", "test": "FACS analysis of CAR expression on U373 cells", "type": "cell-based", "settings": "1 μM Trichostatin", "procedure": "200,000 U373 cells were plated in 6 well plates. After 24 hours the cells were cultivated with 1 μM Trichostatin for 24 hours. After another 24 hours the cells were isolated. Subsequently, analysis of CAR expression was performed according to a standard protocol using Facs-analysis and the primary antibody anti-CAR clone RmcB from the company Upstate, and a rabbit-anti-mouse FITC as secondary antibody (company DAKO)."}, "[3]": {"system": "HeLa cells", "test": "Oncolytic assay with daunorubicine, HeLa", "type": "cell-based", "settings": "40 ng/ml daunorubicine", "procedure": "(§1) In the practising of the oncolytic assays the following procedure was followed: 200,000 cells (HeLa and U2OS, respectively) were plated into each well of a 6 well plate. On the next day 40 ng/ml (final concentration) of daunorubicine were added. After 3 hours of incubation the cells were infected with 10 and 30 pfu dl520/cell, respectively. Subsequently, the cells were incubated in cytostatic free medium. After 3-5 days the cells were stained using crystal violet."}, "[4]": {"system": "U2OS cells", "test": "Oncolytic assay with daunorubicine, U2OS", "type": "cell-based, human", "settings": "40 ng/ml daunorubicine", "procedure": "as §1"}}}
{"smiles": "CCc1c2c(nc3ccc(OC(=O)N4CCC(N5CCCCC5)CC4)cc13)-c1cc3c(c(=O)n1C2)COC(=O)[C@]3(O)CC", "note": "[Irinotecan]", "values": [{"measurement": "adenoviral replication (dl520) compared to untreated control", "setting": "[1]; 5 μM Irinotecan 24 h before 10 pfu/cell dl520, 3 days", "result": "significantly increased"}]}
{"smiles": "CC(/C=C/C(=O)NO)=C\\[C@@H](C)C(=O)c1ccc(N(C)C)cc1", "note": "[Trichostatin A]", "values": [{"measurement": "adenoviral replication (dl520) compared to untreated controls", "setting": "[1]; 0.25, 0.5 and 0.75 μM Trichostatin A 24 h before 10 pfu/cell dl520, 3 days", "result": "significantly increased"}, {"measurement": "CAR-positive cells", "setting": "[2]", "result": 56.2, "unit": "%"}]}
{"smiles": "COc1cccc2c1C(=O)c1c(O)c3c(c(O)c1C2=O)C[C@@](O)(C(C)=O)C[C@@H]3O[C@H]1C[C@H](N)[C@H](O)[C@H](C)O1", "note": "[daunorubicine]", "values": [{"measurement": "effect on replication of dl520", "setting": "[3]", "result": "induces the replication of dl520"}, {"measurement": "effect on replication of dl520", "setting": "[4]", "result": "induces the replication of dl520"}]}
